Patent publication US20250235500A1, “NEW POLYPEPTIDE FOR PROMOTING TISSUE REPAIR, AND USE THEREOF” (Jinan University, priority 2021, published 2025)
Bridge positions count the residues as written; N and C are the ends. Peptide text beside a SMILES is read from it.

Legend:
skin of subjects = assay: Skin safety evaluation, closed patch test; format: in vivo, human; conditions: TRF7 2 mg/mL, 24 h patch, 20 subjects, observed at 0.5, 6, 12, 24 and 48 h
Experimental: Subject population: A total of 20 subjects, comprising 10 females and 10 males aged 18-55, were selected. All subjects had healthy skin without any history of skin diseases or allergies, meeting the eligibility criteria for participation.
Test method: Qualified patch testers were selected, and a closed patch test method was adopted. Approximately 0.020-0.025 mL of the polypeptide TRF7 (2 mg/mL) was applied to the patch testers, which were then affixed to the subjects' backs using specialized adhesive tape. […] The results of the skin reactions were recorded according to the grading standards stipulated in the Hygienic Standard for Cosmetics.

[1] = system: stress-induced gastric ulcer in rats; assay: Protective effect on stress-induced gastric ulcer in rats (restraint water-immersion); format: in vivo, SD rats; conditions: sucralfate 1 g/kg intragastric, 7 days; Guth standard; model group 75.1 ± 13.8
Experimental: Test Method: 20 male SD rats weighing 180-210 g (purchased from Guangdong Medical Experimental Animal Center) were randomly divided into five groups: a blank group, a model group, a sucralfate group (1 g/kg, a positive drug group), a low-dose TRF7 group (12.5 mg/kg), and a high-dose TRF7 group (50.0 mg/kg). The treatment groups were subjected to intragastric administration for 7 consecutive days. 24 h before modeling, the rats were subjected to […] but fed with water. […] The rats were cut open along greater curvatures of the stomach, rinsed with the normal saline, and then unfolded, damage to gastric mucosa was observed, and a gastric ulcer index was calculated. Calculating the ulcer index (UI) according to a Guth standard: punctate hemorrhage was scored as 1 point, linear hemorrhage with a length of <1 mm was scored as 2 points, linear hemorrhage with a length of 1-2 mm was scored as 3 points, linear hemorrhage with a length of 2-4 mm was scored as 4 points, linear hemorrhage with a length of >4 mm was scored as 5 points, and linear hemorrhage with a width of >1 mm was scored double points.

| Compound | skin reactions in closed patch test (skin of subjects) | Ulcer inde [1] |
| --- | --- | --- |
| CC(C)C[C@H](NC(=O)[C@@H]1CCCN1C(=O)[C@H](C)NC(=O)[C@H](Cc1ccc(O)cc1)NC(=O)[C@H](CO)NC(=O)CNC(=O)[C@@H]1CSSC[C@H](NC(=O)[C@H](C)N)C(=O)N2CCC[C@H]2C(=O)N[C@@H](CC(N)=O)C(=O)N[C@@H](Cc2ccc(O)cc2)C(=O)N2CCC[C@H]2C(=O)N[C@@H](Cc2ccc(O)cc2)C(=O)N1)C(=O)NCC(=O)N[C@@H](Cc1ccc(O)cc1)C(=O)N[C@@H](Cc1c[nH]cn1)C(=O)N[C@H](C(=O)N[C@@H](CCCNC(=N)N)C(=O)N[C@@H](CCC(=O)O)C(=O)N[C@@H](Cc1ccc(O)cc1)C(=O)N1CCC[C@H]1C(=O)N[C@@H](C)C(=O)NCC(=O)N[C@H](C(=O)N[C@@H](CO)C(=O)N[C@@H](C)C(=O)N[C@@H](C)C(=O)O)C(C)C)C(C)C [TRF7] (H-ACPNYPYCGSYAPLGYHVREYPAGVSAA-OH; disulfide 2-8) | no adverse skin reactions observed | – |
| sucralfate | – | 35.5 ± 8.7 |
